# Patent publication US20110200531A1, “TREATMENT AND DIAGNOSIS OF CENTRAL NERVOUS SYSTEM DISORDERS” (THE REGENTS OF THE UNIVERSITY OF CALIFORNIA, priority 2009, published 2011)
# Entries after “also recorded” stand apart in the source; their conditions may differ.
# What was measured:
# [1] = test system: 3×Tg-AD mouse brain; assay: Brain pathology in 3×Tg-AD mice fed TMP-containing diet; assay type: in vivo
# Method: (A) 16-month old triple-transgenic mice (3×Tg-AD, females) were fed with TMP containing (300 mg TMP/Kg diet) or nutrients-matched control diet made by BioSery (Frenchtown, N.J.) for 70 days. […] Animals were euthanized and perfused with PBS following behavioral analyses. Half the brain was fixed with 4% paraformaldehyde (PFA) in 1×PBS and sectioned using a microtome at 40 μm, while the other half-brain was dissected and rapidly frozen for biochemical analyses. […] The boxed areas in (a) is shown in (b) at higher magnification. […] The boxed areas in a & c are shown in b & d at higher magnification. Nuclei were stained as red by propidium iodide (PI). Scale bar=400 μm in A.a&c; 100 μm in B.a&c; 80 μm A.d&e, B.d; and 60 μm in A.b, B.b. (C) Glutathione (GSH) contents in the mouse brains were measured in the cortical lysates prepared from the 3×Tg AD mouse brains following TMP treatments or control using a Biovison Glutathione colorimetric detection kit. Lysates from age-matched untreated wild type mouse brains were used as controls (WT).
# (§1) In these mice, the earliest pathological hallmark is the accumulation of intraneuronal Aβ in the hippocampus, cortex and amygdala in 4 month old 3×Tg-AD homozygous mice. […] Between 4-6 months of age 3×Tg-AD homozygous mice develop diffuse amyloid plaques in the neocortex. At 6 months the retention deficits are associated with significant impairments in spatial learning of the Morris Water Maze task. 16 Month old triple-transgenic female mice (3×Tg-AD) were fed TMP-containing (300 mg TMP/kg diet) or nutrients-matched control diet made by Biosery for 70 days. Brain and retina pathology was evaluated by immunohistochemistry with specific antibodies and learning and memory performance were scored using the Novel Object Recognition Task and using Morris Water Maze trials.
# [2] = test system: Thy1.2 promoter; assay: Luciferase-mediated Thy1.2 activity reporter in N2A cells; assay type: cell-based, mouse; settings: TMP 50 μM, 24 hr
# [3] = test system: Primary neurons treated with Aβ1-42; assay: Neuronal survival in primary neuronal cultures treated with pre-aggregated Aβ1-42; assay type: cell-based, C57BL mice; settings: 50 μM TMP with pre-aggregated Aβ1-42
# Method: Primary neurons prepared from postnatal 1 day C57BL mice were treated with pre-aggregated Aβ1-42 combined with either 50 μM TMP or equal volume of vehicle at day 5 after plating. […] Nuclei were counterstained as blue by Hoechst 33342 (Hoec). Scale bar=100 μm in b & e; 80 μm a, d, f; 60 μm in c; and 40 μm in B.
# [4] = test system: 5×FAD mouse brains; assay: Abeta immunoreactivity (6E10) in 5×FAD mouse brains; assay type: in vivo, mice; settings: chow containing 300 mg/Kg from postnatal day 61 for 4 months
# From the text: Animal tissues were perfused with 1×PBS followed by overnight fixation in 4% paraformaldehyde in cold room. Vibrotome sections (˜50 μm thick) were immunostained with 6E10 antibody, which recognizes all forms of Abeta, and visualized by fluorescence microscopy.
# [5] = test system: 3×Tg-AD mice; assay: Learning and memory in 3×Tg AD mice (novel object recognition, Morris water maze); assay type: in vivo; settings: 16-month old 3×Tg-AD females
# Method: Both 16-month old 3×Tg-AD and background-matched wild type (WT) mice (females) were fed with TMPcontaining or nutrients matched control for 60 days as described in FIG. 3. (A) On day 61, all the mice were tested for object recognition as previously described. Briefly, mice (n=14 for each group) were habituated to a 60×30 cm container for 5 min. Two identical objects were placed in the bottom of the cage as mirror images of each other. The animal was trained for 5 min followed by a 5 min retention interval in the home cage. Then one of the objects in the test container was replaced with a novel object. During the 3-min probe trial, the mouse was placed in the cage and time spent investigating both objects was measured. A recognition index (R1) score is depicted as: (TimeN (in seconds for novel object)/TimeTotal (in seconds for both old and novel objects))×100. (B-D) Starting on day 62, all the mice were trained for 9 days on the Morris water maze (MWM) exactly as described for the behavior testing. […] (C) MWMprobe trial for number of platform location crosses, and (D) MWM probe trial for time spent in the target quadrant. As shown by the p values, (*) indicates significant improvement by TMP treatments with respect to the corresponding controls.
# FIG. 21A-D: Improvement of learning and memory in aged 3×Tg AD mice by TMP treatment. Novel object recognition task was performed. A recognition index (R1) score is depicted as: [TimeN (in seconds for novel object)/TimeTotal (in seconds for both old and novel objects)]×100. B-D Starting on day 62, all the mice were trained for 9 days on the Morris water maze (MWM) for the behavior testing. […] (C) MWM probe trial for number of platform location crosses, and (D) MWM probe trial for time spent in the target quadrant. As shown by the p values, (*) indicates significant improvement by the compound treatments with respect to the corresponding controls.
# as §1, with “TMP improves pathology in brains of 3×Tg-AD mice and results in increased memory and learning (See FIGS. 3, 4, and 10). In” for “In”, “16 Month old triple-transgenic female mice (3×Tg-AD) were fed TMP-containing (300 mg TMP/kg diet) or nutrients-matched control diet made by Biosery for 70 days.” left out
# The ability of TMP-N to improve learning and memory in 3×Tg AD mice was assessed using novel object recognition task. […]
# [6] = test system: cells under stress; assay: Production of peroxides in cells under stress; assay type: cell-based
# [7] = test system: rat brains following kainate-induced seizures; assay: Neuronal degeneration in rat brains following kainate-induced seizures (H&E, TUNEL); assay type: in vivo, Sprague-Dawley rats; settings: KA 10.5 mg/Kg s.c., TMP 50 mg/Kg s.c. 1 hr after onset of seizures
# Method: One month-old Sprague-Dawley rats were subcutaneously (s.c.) administrated kainite (KA) (10.5 mg/Kg). 1 hr after the onset of seizures animals were given TMP (50 mg/Kg, s.c.) or equal volume of vehicle. All the animals were sacrificed 24 hr after TMP or vehicle injection under deep anesthesia. […] Scale bar=100 μm in b, d, e, g, i, j, 1, n and o; and 400 μm in a, c, f, h, k and m.
# [8] = test system: retinas of 3×Tg-AD mice; assay: Retinal pathology in 3×Tg-AD mice; assay type: in vivo
compound,measurement,setting,value
"Cc1nc(C)c(C)nc1C [TMP, tetramethylpyrazine]","GFAP staining (astrocyte activation, astrogliosis) in brain","[1]; 300 mg TMP/Kg diet, 70 days",dramatically reduced Aβ accumulation and senile plaques as well as astrogliosis; also recorded: reduced intensity of GFAP staining
same,Glutathione (GSH) contents in cortical lysates,"[1]; 300 mg TMP/Kg diet, 70 days, colorimetric kit",significantly increase GSH contents
same,adverse effects on the health of animals,"[1]; 300 mg TMP/Kg diet, about 40~50 mg/Kg daily per os, 70 days",no adverse effects on the health of animals have been observed
same,BACE-related APP cleavage and Aβ accumulation in brains,[1]; 3×Tg AD mouse brains,reduces BACE-related APP cleavage and Aβ accumulation
same,Aβ staining / Aβ accumulation and senile plaques in brain (immunohistochemistry),"[1]; 16-month old females, 300 mg TMP/Kg diet, about 40~50 mg/Kg daily per os, 70 days, 50 mg/kg",dramatically reduced Aβ accumulation and senile plaques; also recorded: markedly reduced levels of Aβ staining
same,Thy1.2 activity (luciferase-positive cells relative to all transfected cells),[2],no influence of TMP on Thy1.2 activity
same,mitochondrial depolarization (TMRM staining),[3],very few cells
same,neuronal survival / morphological changes showing neuronal degeneration (DIC microscopy),[3]; 24 hr,promotes neuronal survival; also recorded: not in these cells in the presence of TMP
same,Abeta immunoreactivity / deposits in brain (6E10),[4],reduction Abeta immunoreactivity
same,Morris water maze (MWM) acquisition performance,"[5]; TMP diet 60 days, trained 9 days from day 62",significantly improved the performance of 3×Tg-AD mice
same,"learning and memory (object recognition, MWM probe trials)",[5]; TMP-containing diet,significant improvements in learning and memory; also recorded: improves learning and memory
same,production of peroxides,[6],inhibits the production of peroxides
same,Quantification of TUNEL-positive cells in the hippocampal regions,[7]; 24 hr,significant less number of damaged neurons
same,"neuronal damage/degeneration by H&E and TUNEL staining, hippocampal and piriform cortex regions",[7]; sacrificed 24 hr after,attenuates neuronal degeneration; also recorded: only exhibited a few sporadic pink (1) and TUNEL-positive cells
same,Astrocytic activation in the retinas,[8],inhibited
same,Aβ plaques in the retinas,[8],significantly reduces the number if Aβ plaques
same,fibril and oligomer conformations of Aβ,[8],reduces both fibril and oligomer conformations of Aβ
same,retinal pathologies associated with disease,[8],beneficial effects
